{
  "source": "patent US20040204443A1",
  "about": "“Method for inducing pain relief using imidazo[1,2-a]pyridine derivatives” (priority 2003, published 2004)",
  "key": {"[1]": {"tested_on": "intense, bilateral pain in both feet", "assay": "Case report: patient with bilateral foot pain, oral drug treatment", "format": "in vivo, human patient", "conditions": "for decrease in pain: foot pain from stretched plantar fascia, earlier drug treatments", "procedure": "Additionally, the patient was treated with topical lidocaine and with a tens machine."}, "[2]": {"tested_on": "intense, bilateral pain in both feet", "assay": "Case report: same foot-pain patient, topical application in a cream", "format": "in vivo, human patient", "conditions": "applied topically in a cream"}, "[3]": {"tested_on": "pain in patient with metastatic cancer", "assay": "Case report: second patient with metastatic cancer pain", "format": "in vivo, human patient", "text": "A second patient with metastatic cancer was also experiencing pain and had reported little or no relief from common analgesics."}, "[4]": {"conditions": "has been reported; cited from earlier work"}, "[5]": {"conditions": "may be eliminated more slowly in obese individuals; cited from earlier work"}},
  "data": [
    {"smiles": "COc1cccc(C2(O)CCCCC2CN(C)C)c1", "note": "(centres unmarked) [Ultram]", "values": [
      {"measurement": "decrease in pain", "setting": "[1]; person", "result": "only the latter showing any decrease in pain"}
    ]},
    {"smiles": "CC1(C)O[C@@H]2[C@@H](CO[C@@]3(COS(N)(=O)=O)OC(C)(C)O[C@@H]23)O1", "note": "[Topamax]", "values": [
      {"measurement": "decrease in pain", "setting": "[1]; person", "result": "only the latter showing any decrease in pain"}
    ]},
    {"smiles": "NCC1(CC(=O)O)CCCCC1", "note": "[Neurontin]", "values": [
      {"measurement": "decrease in pain", "setting": "[1]; person", "result": "only the latter showing any decrease in pain"}
    ]},
    {"smiles": "CN(C)CCC=C1c2ccccc2CCc2ccccc21", "note": "[Elavil, amitryptiline]", "values": [
      {"measurement": "decrease in pain", "setting": "[1]; person", "result": "only the latter showing any decrease in pain"}
    ]},
    {"smiles": "Cc1ccc(-c2nc3ccc(C)cn3c2CC(=O)N(C)C)cc1", "note": "[AMBIEN, N,N,6-trimethyl-2-p-tolyl-imidazo[1,2-a]pyridine-3-acetamide]", "values": [
      {"measurement": "duration of pain abatement", "setting": "[1]; obese person, 10 mg H.S.", "result": "12 to 14", "unit": "h"},
      {"measurement": "other foot pains (arch, heel, cuboid area)", "setting": "[1]; person", "result": "ameliorated"},
      {"measurement": "effective dosage", "setting": "[1]; person, 10 mg H.S.", "result": "about 0.08 mg per kg"},
      {"measurement": "abatement of pain", "setting": "[1]; person, 10 mg H.S., able to walk prior to retiring", "result": "noticeable abatement of pain"},
      {"measurement": "pain relief after topical application", "setting": "[2]", "result": "reported pain relief"},
      {"measurement": "analgesic effect", "setting": "[3]", "result": "marked analgesic effect"},
      {"measurement": "time in which metabolized", "setting": "[4]", "result": "6 to 8", "unit": "h"},
      {"measurement": "lipophilicity", "setting": "[5]", "result": "lipophilic"}
    ]},
    {"smiles": "Nc1nnc(-c2cccc(Cl)c2Cl)c(N)n1", "note": "[Lamictal]", "values": [
      {"measurement": "decrease in pain", "setting": "[1]; person", "result": "only the latter showing any decrease in pain"}
    ]},
    {"smiles": "CNCCC=C1c2ccccc2CCc2ccccc21", "note": "[Parmelar, nortryptiline]", "values": [
      {"measurement": "decrease in pain", "setting": "[1]; person", "result": "only the latter showing any decrease in pain"}
    ]}
  ]
}
